Assay results taken from patent US20220213047A1, “CARBONIC ANHYDRASE INHIBITORS FOR TREATMENT OF NEISSERIA GONORRHOEAE INFECTION” (Purdue Research Foundation, priority 2021, published 2022).
≈ marks a conversion by molar mass, not a printed value.

What was measured:
[1] = system: N. gonorrhoeae; assay: MIC against N. gonorrhoeae clinical isolates, normal and CO2 conditions; format: cell-based; settings: Neisseria gonorrhoeae
Experimental: (§1) These tests were performed in normal culture conditions with standard CO2 levels and in CO2 (5% in incubator) conditions.

[2] = system: N. gonorrhoeae; assay: MIC by agar dilution on a larger panel of N. gonorrhoeae strains; format: cell-based, Neisseria gonorrhoeae; settings: Neisseria gonorrhoeae
Experimental: as §1

[3] = strain panel of Table 9, CO2 (5% CO2 containing air)

Structure (SMILES): NS(=O)(=O)c1cc(Cl)c(Cl)c(S(N)(=O)=O)c1 [Dichlorphenamide]
- MIC ([1]; N. gonorrhoeae 178, Non CO2 environment): 2 µg/mL (≈ 6.55 µM)
- MIC ([1]; N. gonorrhoeae 178, normal growth environment (with CO2)): > 64 µg/mL
- MIC ([1]; N. gonorrhoeae 181, Non CO2 environment): 8 µg/mL (≈ 26.2 µM)
- MIC ([1]; N. gonorrhoeae 181, normal growth environment (with CO2)): > 64 µg/mL
- MIC ([1]; N. gonorrhoeae 194, Non CO2 environment): 4 µg/mL (≈ 13.1 µM)
- MIC ([1]; N. gonorrhoeae 194, normal growth environment (with CO2)): > 64 µg/mL
- MIC ([2]; N. gonorrhoeae 165, CO2 (5% CO2 containing air), read-out: MIC): > 128 µg/mL
- MIC ([2]; N. gonorrhoeae 165, Non CO2 (ambient air), read-out: MIC): 2 µg/mL (≈ 6.55 µM)
- MIC ([2]; N. gonorrhoeae 166, CO2 (5% CO2 containing air), read-out: MIC): > 128 µg/mL
- MIC ([2]; N. gonorrhoeae 166, Non CO2 (ambient air), read-out: MIC): 8 µg/mL (≈ 26.2 µM)
- MIC ([2]; N. gonorrhoeae 167, CO2 (5% CO2 containing air), read-out: MIC): > 128 µg/mL
- MIC ([2]; N. gonorrhoeae 167, Non CO2 (ambient air), read-out: MIC): 4 µg/mL (≈ 13.1 µM)
- MIC ([2]; N. gonorrhoeae 170, CO2 (5% CO2 containing air), read-out: MIC): > 128 µg/mL
- MIC ([2]; N. gonorrhoeae 170, Non CO2 (ambient air), read-out: MIC): 64 µg/mL (≈ 210 µM)
- MIC ([2]; N. gonorrhoeae 171, CO2 (5% CO2 containing air), read-out: MIC): > 128 µg/mL
- MIC ([2]; N. gonorrhoeae 171, Non CO2 (ambient air), read-out: MIC): 1 µg/mL (≈ 3.28 µM)
- MIC ([2]; N. gonorrhoeae 173, CO2 (5% CO2 containing air), read-out: MIC): > 128 µg/mL
- MIC ([2]; N. gonorrhoeae 173, Non CO2 (ambient air), read-out: MIC): 2 µg/mL (≈ 6.55 µM)
- MIC ([2]; N. gonorrhoeae 174, CO2 (5% CO2 containing air), read-out: MIC): > 128 µg/mL
- MIC ([2]; N. gonorrhoeae 174, Non CO2 (ambient air), read-out: MIC): 2 µg/mL (≈ 6.55 µM)
- MIC ([2]; N. gonorrhoeae 175, CO2 (5% CO2 containing air), read-out: MIC): > 128 µg/mL
- MIC ([2]; N. gonorrhoeae 175, Non CO2 (ambient air), read-out: MIC): 16 µg/mL (≈ 52.4 µM)
- MIC ([2]; N. gonorrhoeae 176, CO2 (5% CO2 containing air), read-out: MIC): > 128 µg/mL
- MIC ([2]; N. gonorrhoeae 176, Non CO2 (ambient air), read-out: MIC): 4 µg/mL (≈ 13.1 µM)
- MIC ([2]; N. gonorrhoeae 177, CO2 (5% CO2 containing air), read-out: MIC): 128 µg/mL (≈ 419 µM)
- MIC ([2]; N. gonorrhoeae 177, Non CO2 (ambient air), read-out: MIC): 4 µg/mL (≈ 13.1 µM)
- MIC ([2]; N. gonorrhoeae 178, CO2 (5% CO2 containing air), read-out: MIC): > 128 µg/mL
- MIC ([2]; N. gonorrhoeae 178, Non CO2 (ambient air), read-out: MIC): 1 µg/mL (≈ 3.28 µM)
- MIC ([2]; N. gonorrhoeae 179, CO2 (5% CO2 containing air), read-out: MIC): > 128 µg/mL
- MIC ([2]; N. gonorrhoeae 179, Non CO2 (ambient air), read-out: MIC): 8 µg/mL (≈ 26.2 µM)
- MIC ([2]; N. gonorrhoeae 180, CO2 (5% CO2 containing air), read-out: MIC): > 128 µg/mL
- MIC ([2]; N. gonorrhoeae 180, Non CO2 (ambient air), read-out: MIC): 8 µg/mL (≈ 26.2 µM)
- MIC ([2]; N. gonorrhoeae 181, CO2 (5% CO2 containing air), read-out: MIC): 128 µg/mL (≈ 419 µM)
- MIC ([2]; N. gonorrhoeae 181, Non CO2 (ambient air), read-out: MIC): 8 µg/mL (≈ 26.2 µM)
- MIC ([2]; N. gonorrhoeae 182, CO2 (5% CO2 containing air), read-out: MIC): > 128 µg/mL
- MIC ([2]; N. gonorrhoeae 182, Non CO2 (ambient air), read-out: MIC): 16 µg/mL (≈ 52.4 µM)
- MIC ([2]; N. gonorrhoeae 183, CO2 (5% CO2 containing air), read-out: MIC): 128 µg/mL (≈ 419 µM)
- MIC ([2]; N. gonorrhoeae 183, Non CO2 (ambient air), read-out: MIC): 1 µg/mL (≈ 3.28 µM)
- MIC ([2]; N. gonorrhoeae 184, CO2 (5% CO2 containing air), read-out: MIC): > 128 µg/mL
- MIC ([2]; N. gonorrhoeae 184, Non CO2 (ambient air), read-out: MIC): 4 µg/mL (≈ 13.1 µM)
- MIC ([2]; N. gonorrhoeae 185, CO2 (5% CO2 containing air), read-out: MIC): > 128 µg/mL
- MIC ([2]; N. gonorrhoeae 185, Non CO2 (ambient air), read-out: MIC): 8 µg/mL (≈ 26.2 µM)
- MIC ([2]; N. gonorrhoeae 186, CO2 (5% CO2 containing air), read-out: MIC): > 128 µg/mL
- MIC ([2]; N. gonorrhoeae 186, Non CO2 (ambient air), read-out: MIC): 8 µg/mL (≈ 26.2 µM)
- MIC ([2]; N. gonorrhoeae 188, CO2 (5% CO2 containing air), read-out: MIC): > 128 µg/mL
- MIC ([2]; N. gonorrhoeae 188, Non CO2 (ambient air), read-out: MIC): 1 µg/mL (≈ 3.28 µM)
- MIC ([2]; N. gonorrhoeae 191, CO2 (5% CO2 containing air), read-out: MIC): > 128 µg/mL
- MIC ([2]; N. gonorrhoeae 191, Non CO2 (ambient air), read-out: MIC): 4 µg/mL (≈ 13.1 µM)
- MIC ([2]; N. gonorrhoeae 193, CO2 (5% CO2 containing air), read-out: MIC): 128 µg/mL (≈ 419 µM)
- MIC ([2]; N. gonorrhoeae 193, Non CO2 (ambient air), read-out: MIC): 4 µg/mL (≈ 13.1 µM)
- MIC ([2]; N. gonorrhoeae 194, CO2 (5% CO2 containing air), read-out: MIC): 128 µg/mL (≈ 419 µM)
- MIC ([2]; N. gonorrhoeae 194, Non CO2 (ambient air), read-out: MIC): 4 µg/mL (≈ 13.1 µM)
- MIC ([2]; N. gonorrhoeae 196, CO2 (5% CO2 containing air), read-out: MIC): > 128 µg/mL
- MIC ([2]; N. gonorrhoeae 196, Non CO2 (ambient air), read-out: MIC): 1 µg/mL (≈ 3.28 µM)
- MIC ([2]; N. gonorrhoeae 197, CO2 (5% CO2 containing air), read-out: MIC): > 128 µg/mL
- MIC ([2]; N. gonorrhoeae 197, Non CO2 (ambient air), read-out: MIC): 4 µg/mL (≈ 13.1 µM)
- MIC ([2]; N. gonorrhoeae 198, CO2 (5% CO2 containing air), read-out: MIC): > 128 µg/mL
- MIC ([2]; N. gonorrhoeae 198, Non CO2 (ambient air), read-out: MIC): 1 µg/mL (≈ 3.28 µM)
- MIC ([2]; N. gonorrhoeae 200, CO2 (5% CO2 containing air), read-out: MIC): > 128 µg/mL
- MIC ([2]; N. gonorrhoeae 200, Non CO2 (ambient air), read-out: MIC): 32 µg/mL (≈ 105 µM)
- MIC ([2]; N. gonorrhoeae 202, CO2 (5% CO2 containing air), read-out: MIC): > 128 µg/mL
- MIC ([2]; N. gonorrhoeae 202, Non CO2 (ambient air), read-out: MIC): 16 µg/mL (≈ 52.4 µM)
- MIC ([2]; N. gonorrhoeae 203, CO2 (5% CO2 containing air), read-out: MIC): > 128 µg/mL
- MIC ([2]; N. gonorrhoeae 203, Non CO2 (ambient air), read-out: MIC): 1 µg/mL (≈ 3.28 µM)
- MIC ([2]; N. gonorrhoeae 205, CO2 (5% CO2 containing air), read-out: MIC): > 128 µg/mL
- MIC ([2]; N. gonorrhoeae 205, Non CO2 (ambient air), read-out: MIC): 16 µg/mL (≈ 52.4 µM)
- MIC ([2]; N. gonorrhoeae 206, CO2 (5% CO2 containing air), read-out: MIC): > 128 µg/mL
- MIC ([2]; N. gonorrhoeae 206, Non CO2 (ambient air), read-out: MIC): 4 µg/mL (≈ 13.1 µM)
- MIC ([2]; N. gonorrhoeae 207, CO2 (5% CO2 containing air), read-out: MIC): > 128 µg/mL
- MIC ([2]; N. gonorrhoeae 207, Non CO2 (ambient air), read-out: MIC): 4 µg/mL (≈ 13.1 µM)
- MIC ([2]; N. gonorrhoeae 208, CO2 (5% CO2 containing air), read-out: MIC): > 128 µg/mL
- MIC ([2]; N. gonorrhoeae 208, Non CO2 (ambient air), read-out: MIC): 4 µg/mL (≈ 13.1 µM)
- MIC ([2]; N. gonorrhoeae 209, CO2 (5% CO2 containing air), read-out: MIC): > 128 µg/mL
- MIC ([2]; N. gonorrhoeae 209, Non CO2 (ambient air), read-out: MIC): 1 µg/mL (≈ 3.28 µM)
- MIC ([2]; N. gonorrhoeae 210, CO2 (5% CO2 containing air), read-out: MIC): > 128 µg/mL
- MIC ([2]; N. gonorrhoeae 210, Non CO2 (ambient air), read-out: MIC): 4 µg/mL (≈ 13.1 µM)
- MIC ([2]; N. gonorrhoeae 211, CO2 (5% CO2 containing air), read-out: MIC): > 64 µg/mL
- MIC ([2]; N. gonorrhoeae 211, Non CO2 (ambient air), read-out: MIC): 1 µg/mL (≈ 3.28 µM)
- MIC ([2]; N. gonorrhoeae 212, CO2 (5% CO2 containing air), read-out: MIC): > 128 µg/mL
- MIC ([2]; N. gonorrhoeae 212, Non CO2 (ambient air), read-out: MIC): 32 µg/mL (≈ 105 µM)
- MIC ([2]; N. gonorrhoeae 213, CO2 (5% CO2 containing air), read-out: MIC): > 128 µg/mL
- MIC ([2]; N. gonorrhoeae 213, Non CO2 (ambient air), read-out: MIC): 16 µg/mL (≈ 52.4 µM)
- MIC ([2]; N. gonorrhoeae 214, CO2 (5% CO2 containing air), read-out: MIC): > 128 µg/mL
- MIC ([2]; N. gonorrhoeae 214, Non CO2 (ambient air), read-out: MIC): 1 µg/mL (≈ 3.28 µM)
- MIC50 [2, 3]: > 128 µg/mL
- MIC90 [2, 3]: > 128 µg/mL
- MIC ([2]; strain panel of Table 9, CO2 (5% CO2 containing air), read-out: Modal MIC): > 128 µg/mL
- MIC50 ([2]; strain panel of Table 9, Non CO2 (ambient air)): 4 µg/mL (≈ 13.1 µM)
- MIC ([2]; strain panel of Table 9, Non CO2 (ambient air), read-out: Modal MIC): 4 µg/mL (≈ 13.1 µM)
- MIC90 ([2]; strain panel of Table 9, Non CO2 (ambient air, standard CO2 conditions)): 16 µg/mL (≈ 52.4 µM)
